The compounds below were run against T1, human Cot catalytic domain (30-397 amino acids) (Homo sapiens, UniProt P41279) (assay: High Throughput Cot Biochemical Assay (KinEASE TR-FRET)). Conditions: Cot KinEASE TR-FRET, 400 μM ATP; read-out: IC50 HTRF.
T1 construct: Purified recombinant human Cot catalytic domain (30-397 amino acids) was purchased from Cama Biosciences; purchased Cama Biosciences (so in the source)
In short: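 TR-FRET (KinEASE) read-out: Eu-labelled phospho-specific antibody binds XL665-tagged STK3 peptide (1 μM) phosphorylated by 5 nM human Cot kinase domain (residues 30-397). Reaction at 400 μM ATP, pH 7.0 MOPS buffer with 10 mM MgOAc, 1 mM DTT and 0.1% DMSO.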

T1 sequence (P41279 30-397): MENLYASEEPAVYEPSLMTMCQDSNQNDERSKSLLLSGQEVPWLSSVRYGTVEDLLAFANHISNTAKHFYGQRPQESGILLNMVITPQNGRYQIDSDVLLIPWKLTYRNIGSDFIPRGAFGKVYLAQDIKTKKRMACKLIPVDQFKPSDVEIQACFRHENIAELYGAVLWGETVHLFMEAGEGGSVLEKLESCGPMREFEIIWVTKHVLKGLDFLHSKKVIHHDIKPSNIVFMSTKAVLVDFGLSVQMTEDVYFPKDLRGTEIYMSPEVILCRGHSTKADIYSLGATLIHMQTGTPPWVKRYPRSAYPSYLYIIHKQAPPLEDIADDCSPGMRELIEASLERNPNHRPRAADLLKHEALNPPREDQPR

IC50 | SMILES
0.046 µM | CCN1CC[C@@H](n2cc(C(Nc3cc(Cl)c4ncc(C#N)c(Nc5ccc(F)c(Cl)c5)c4c3)c3ccc(F)cc3)nn2)C1 (stereo partly drawn) [Example 865, 8-chloro-4-((3-chloro-4-fluorophenyl)amino)-6-(((1-((R)-1-ethylpyrrolidin-3-yl)-1H-1,2,3-triazol-4-yl)(4-fluorophenyl)methyl)amino) quinoline-3-carbonitrile]
0.101 µM | CCN1CC[C@H](n2cc(C(Nc3cc(Cl)c4ncc(C#N)c(Nc5ccc(F)c(Cl)c5)c4c3)c3ccc(Cl)cc3)nn2)C1 (stereo partly drawn) [Example 879, 8-chloro-4-((3-chloro-4-fluorophenyl)amino)-6-(((4-chlorophenyl)(1-((S)-1-ethylpyrrolidin-3-yl)-1H-1,2,3-triazol-4-yl)methyl)amino)quinoline-3-carbonitrile]
0.059 µM | N#Cc1cnc2c(Cl)cc(NC(c3ccc(OC(F)(F)F)cc3)c3cn(C4CCNCC4)nn3)cc2c1Nc1ccc(F)c(Cl)c1 (centres unmarked) [Example 897, 8-chloro-4-((3-chloro-4-fluorophenyl)amino)-6-(((1-(piperidin-4-yl)-1H-1,2,3-triazol-4-yl)(4-(trifluoromethoxy)phenyl)methyl)amino)quinoline-3-carbonitrile]
0.097 µM | N#Cc1cnc2c(Cl)cc(NC(c3cc(C(F)(F)F)cc(C(F)(F)F)c3)c3cn(C4CCNCC4)nn3)cc2c1Nc1ccc(F)c(Cl)c1 (centres unmarked) [Example 874, 6-(((3,5-bis(trifluoromethyl)phenyl)(1-(piperidin-4-yl)-1H-1,2,3-triazo1-4-yl)methyl)amino)-8-chloro-4-((3-chloro-4-fluorophenyl)amino)quinoline-3-carbonitrile]
1.01 µM | CC1(C)C[C@H](n2cc([C@H](Nc3cc(Cl)c4ncc(C#N)c(Nc5ccc(F)c(Cl)c5)c4c3)c3ccccc3)nn2)CCN1 [Example 788, 8-chloro-4-((3-chloro-4-fluorophenyl)amino)-6-(((R)-(1-((R)-2,2-dimethylpiperidin-4-yl)-1H-1,2,3-triazol-4-yl)(phenyl)methyl)amino) quinoline-3-carbonitrile]
> 10 µM | CC(C)(C)N1CCC(n2cc([C@@H](Nc3cc(Cl)c4ncc(C#N)c(Nc5ccn(CC(F)(F)F)n5)c4c3)c3ccc(Cl)cc3)nn2)CC1 [Example 752, (S)-6-(((1-(1-(tert-butyl)piperidin-4-yl)-1H-1,2,3-triazol-4-yl)(4-chlorophenyl)methyl)amino)-8-chloro-4-((1-(2,2,2-trifluoroethyl)-1H-pyrazol-3-yl)amino)quinoline-3-carbonitrile]
0.023 µM | CCN1CCC(n2cc(C(Nc3cc(Cl)c4ncc(C#N)c(Nc5ccc(F)c(Cl)c5)c4c3)c3ccc(C)cc3)nn2)CC1 (centres unmarked) [Example 917, 8-chloro-4-((3-chloro-4-fluorophenyl)amino)-6-(((1-(1-ethylpiperidin-4-yl)-1H-1,2,3-triazol-4-yl)(p-tolyl)methyl)amino)quinoline-3-carbonitrile]
0.021 µM | N#Cc1cnc2c(Cl)cc(NC(c3ccc(F)cc3)c3cn(C4CCNC4)nn3)cc2c1Nc1ccc(F)c(Cl)c1 (stereo in doubt) [Example 873, 8-chloro-4-((3-chloro-4-fluorophenyl)amino)-6-(((4-fluorophenyl)(1-((S)-pyrrolidin-3-yl)-1H-1,2,3-triazol-4-yl)methyl)amino)quinoline-3-carbonitrile]
> 1 µM | Cc1ccc(C(Nc2cc(Cl)c3ncc(C#N)c(Nc4ccc(F)c(Cl)c4)c3c2)c2cn(C3CCN(C(=O)OCc4ccccc4)CC3)nn2)cc1 (centres unmarked) [Example 915, benzyl 4-(4-(((8-chloro-4-((3-chloro-4-fluorophenyl)amino)-3-cyanoquinolin-6-yl)aminoXp-tolyl)methyl)-1H-1,2,3-triazol-1-yl)piperidine-1-carboxylate]
0.005 µM | CCN1CCC(n2cc(C(Nc3cc(Cl)c4ncc(C#N)c(Nc5ccc(F)c(Cl)c5)c4c3)c3cccc(OC)c3)nn2)CC1 (centres unmarked) [Example 904, 8-chloro-4-((3-chloro-4-fluorophenyl)amino)-6-(((1-(1-ethylpiperidin-4-yl)-1H-1,2,3-triazol-4-yl)(3-methoxyphenyl)methyl)amino) quinoline-3-carbonitrile]
0.926 µM | N#Cc1cnc2c(Cl)cc(N[C@H](c3ccc(F)cc3)c3cn(C4CCNCC4)nn3)cc2c1Nc1ccc(F)c(Cl)c1 [Example 850, (R)-8-chloro-4-((3-chloro-4-fluorophenyl)amino)-6-(((4-fluorophenyl)(1-(piperidin-4-yl)-1H-1,2,3-triazol-4-yl)methyl)amino)quinoline-3-carbonitrile]
0.099 µM | CS(=O)(=O)N1CCC(n2cc(C(Nc3cc(Cl)c4ncc(C#N)c(Nc5ccc(F)c(Cl)c5)c4c3)c3ccc(F)cc3)nn2)CC1 (centres unmarked) [Example 845, 8-chloro-4-((3-chloro-4-fluorophenyl)amino)-6-(((4-fluorophenyl)(1-(1-(methylsulfonyl)piperidin-4-yl)-1H-1,2,3-triazol-4-yl)methyl)amino)quinoline-3-carbonitrile]
1.48 µM | N#Cc1cnc2ccc(NC(c3ccc(F)cc3)c3ccncn3)cc2c1Nc1ccc(F)c(Cl)c1 (centres unmarked) [Example 799, 4-((3-chloro-4-fluorophenyl)amino)-6-(((4-fluorophenyl)(pyrimidin-4-yl)methyl)amino)quinoline-3-carbonitrile]
2.4 µM | N#Cc1cnc2c(Cl)cc(NC(c3ccc(F)cc3)c3cn(C4CCN(C(=O)OCc5ccccc5)CC4)nn3)cc2c1Nc1ccc(F)c(Cl)c1 (centres unmarked) [Example 855, benzyl 4-(4-(((8-chloro-4-((3-chloro-4-fluorophenyl)amino)-3-cyanoquinolin-6-yl)amino)(4-fluorophenyl)methyl)-1H-1,2,3-triazol-1-yl)piperidine-1-carboxylate]
1.58 µM | N#Cc1cnc2c(Cl)cc(NC(c3ccc(F)cc3)c3ccno3)cc2c1Nc1ccc(F)c(Cl)c1 (centres unmarked) [Example 717, 8-chloro-4-((3-chloro-4-fluorophenyl)amino)-6-(((4-fluorophenyl)(isoxazol-5-yl)methyl)amino)quinoline-3-carbonitrile]
> 1 µM | N#Cc1cnc2c(Cl)cc(NC(c3ccc(F)c(F)c3)c3cn(C4CCN(C(=O)OCc5ccccc5)CC4)nn3)cc2c1Nc1ccc(F)c(Cl)c1 (centres unmarked) [Example 899, benzyl 4-(4-(((8-chloro-4-((3-chloro-4-fluorophenyl)amino)-3-cyanoquinolin-6-yl)amino)(3,4-difluorophenyl)methyl)-1H-1,2,3-triazol-1-yl)piperidine-1-carboxylate]
0.385 µM | N#Cc1cnc2c(Cl)cc(NC(c3ccc(F)cc3)c3cn([C@H]4CCN(C(=O)OCc5ccccc5)C4)nn3)cc2c1Nc1ccc(F)c(Cl)c1 (stereo partly drawn) [Example 876, benzyl (3S)-3-(4-(((8-chloro-4-((3-chloro-4-fluorophenyl)amino)-3-cyanoquinolin-6-yl)amino)(4-fluorophenyl)methyl)-1H-1,2,3-triazol-1-yl)pyrrolidine-1-carboxylate]

Reference: patent publication US10316017B2, “COT modulators and methods of use thereof” (Gilead Sciences, Inc., priority 2015, dated 2019)
